# In patent publication US11090319B2, “Therapeutic uses of pharmaceutical compositions comprising cyclic boronic acid ester derivatives” (Melinta Subsidiary Corp., priority 2010, dated 2021):
# Where two headings read alike, the source gives them in different places.
# Columns and labels:
# Experiment in all cases: biochemical
# Type in all cases: biochemical
# [1] = molecular target: various β-lactamases (bacterial lysates) (Klebsiella pneumoniae, UniProt Q9F663, H272Y)
# [2] = molecular target: various β-lactamases (bacterial lysates) (Klebsiella pneumoniae, UniProt Q9F663); details: aztreonam cleavage
# [3] = molecular target: various β-lactamases (bacterial lysates) (Escherichia coli, UniProt A0A649V088); details: read-out: AZT IC50 KP1005 CTX-M-14
# [4] = molecular target: various β-lactamases (bacterial lysates) (Salmonella typhimurium, UniProt P0A1V8); details: AZT IC50 KPX1001 OXA-2
# [5] = molecular target: various β-lactamases (bacterial lysates) (Pseudomonas aeruginosa, UniProt P14489); details: AZT IC50 KP1007 OXA-10
# [6] = molecular target: various β-lactamases (bacterial lysates) (Escherichia coli, UniProt A0A5R8T042); details: read-out: AZT IC50 KP1009 CTX-M-15
# [7] = lysate KP1004 KPC-2, read-out: AZT IC50 KP1004 KPC-2 (converted)
# [8] = lysate KP1008 KPC-2, read-out: AZT IC50 KP1008 KPC-2
# various β-lactamases (bacterial lysates) (Pseudomonas aeruginosa, UniProt P14489), sequence (P14489 20-266): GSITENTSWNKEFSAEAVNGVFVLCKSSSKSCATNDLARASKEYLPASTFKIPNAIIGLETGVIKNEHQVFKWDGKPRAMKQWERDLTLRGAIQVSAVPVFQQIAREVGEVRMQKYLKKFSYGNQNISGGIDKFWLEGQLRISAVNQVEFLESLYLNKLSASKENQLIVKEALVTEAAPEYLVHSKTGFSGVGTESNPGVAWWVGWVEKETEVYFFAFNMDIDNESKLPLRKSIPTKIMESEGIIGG
# various β-lactamases (bacterial lysates) (Escherichia coli, UniProt A0A649V088), sequence (A0A649V088 29-291): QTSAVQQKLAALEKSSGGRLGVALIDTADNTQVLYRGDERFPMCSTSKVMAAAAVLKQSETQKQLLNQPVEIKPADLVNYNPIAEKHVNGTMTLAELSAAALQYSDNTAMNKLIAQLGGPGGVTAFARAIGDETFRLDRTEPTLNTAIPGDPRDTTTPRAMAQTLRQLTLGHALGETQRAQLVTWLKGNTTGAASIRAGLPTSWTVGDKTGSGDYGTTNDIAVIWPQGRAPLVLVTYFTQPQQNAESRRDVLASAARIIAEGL
# various β-lactamases (bacterial lysates) (Salmonella typhimurium, UniProt P0A1V8), sequence (P0A1V8 22-275): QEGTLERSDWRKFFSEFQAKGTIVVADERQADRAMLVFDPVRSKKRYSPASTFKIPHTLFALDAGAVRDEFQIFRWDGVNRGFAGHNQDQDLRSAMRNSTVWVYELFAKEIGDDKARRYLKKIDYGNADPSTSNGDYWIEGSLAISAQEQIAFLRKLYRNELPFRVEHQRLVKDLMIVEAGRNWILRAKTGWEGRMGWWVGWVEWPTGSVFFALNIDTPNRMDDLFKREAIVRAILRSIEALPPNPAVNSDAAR
# various β-lactamases (bacterial lysates) (Klebsiella pneumoniae, UniProt Q9F663, H272Y), sequence (Q9F663 whole entry H272Y, looked up): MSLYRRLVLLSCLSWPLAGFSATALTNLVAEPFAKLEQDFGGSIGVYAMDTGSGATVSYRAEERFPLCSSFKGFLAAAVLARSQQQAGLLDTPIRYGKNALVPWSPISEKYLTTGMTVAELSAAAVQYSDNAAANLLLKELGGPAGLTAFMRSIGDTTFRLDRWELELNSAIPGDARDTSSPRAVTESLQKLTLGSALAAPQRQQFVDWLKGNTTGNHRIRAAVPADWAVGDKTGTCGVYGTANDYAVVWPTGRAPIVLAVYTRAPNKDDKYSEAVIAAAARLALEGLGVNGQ
# various β-lactamases (bacterial lysates) (Klebsiella pneumoniae, UniProt Q9F663), sequence (Q9F663 whole entry, looked up): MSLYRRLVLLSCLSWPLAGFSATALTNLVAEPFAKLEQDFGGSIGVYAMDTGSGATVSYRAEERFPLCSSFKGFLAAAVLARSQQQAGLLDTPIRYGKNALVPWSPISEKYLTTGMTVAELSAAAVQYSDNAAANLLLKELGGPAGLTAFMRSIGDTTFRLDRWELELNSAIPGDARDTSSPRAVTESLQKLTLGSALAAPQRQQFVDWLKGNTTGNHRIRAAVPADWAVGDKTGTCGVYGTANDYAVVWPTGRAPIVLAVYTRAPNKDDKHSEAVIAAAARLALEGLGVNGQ
# various β-lactamases (bacterial lysates) (Escherichia coli, UniProt A0A5R8T042), sequence (A0A5R8T042 29-291): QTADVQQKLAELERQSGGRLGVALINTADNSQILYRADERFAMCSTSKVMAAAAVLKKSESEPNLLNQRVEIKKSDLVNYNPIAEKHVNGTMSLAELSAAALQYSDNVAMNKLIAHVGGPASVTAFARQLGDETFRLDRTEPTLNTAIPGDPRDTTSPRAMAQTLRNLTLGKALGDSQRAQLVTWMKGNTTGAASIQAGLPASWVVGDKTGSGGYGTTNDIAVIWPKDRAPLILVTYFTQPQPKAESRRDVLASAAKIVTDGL
Compound,IC50 [1],"IC50 [2, 7]","IC50 [2, 8]",IC50 [3],IC50 [4],IC50 [5],IC50 [6]
"O=C(O)C[C@@H]1CC[C@H](NC(=O)C[C@H]2CCCCN2)B(O)O1 [Compound 52, 2-((3R,6S)-2-hydroxy-3-(2-((R)-piperidin-2-yl)acetamido)-1,2-oxaborinan-6-yl)acetic acid]",1680 to 6710 nM,< 1680 nM,1680 to 6710 nM,> 6.71 µM,> 6.71 µM,> 6.71 µM,> 6.71 µM
"O=C(O)C[C@@H]1CC[C@H](NC(=O)Cc2cc(F)cc(F)c2)B(O)O1 [Compound 66, 2-((3R,6S)-3-(2-(3,5-difluorophenyl)acetamido)-2-hydroxy-1,2-oxaborinan-6-yl)acetic acid]",< 1530 nM,< 1530 nM,< 1530 nM,1.53 to 6.11 µM,< 1.53 µM,> 6.11 µM,> 6.11 µM
"NC(Cc1cccnc1)C(=O)N[C@H]1CC[C@@H](CC(=O)O)OB1O (stereo partly drawn) [Compound 42, 2-((3R,6S)-3-(2-amino-3-(pyridin-3-yl)propanamido)-2-hydroxy-1,2-oxaborinan-6-yl)acetic acid]",< 1560 nM,< 1560 nM,< 1560 nM,> 6.23 µM,> 6.23 µM,> 6.23 µM,> 6.23 µM
"N[C@H]1CC[C@@H](CC(=O)N[C@H]2CC[C@@H](CC(=O)O)OB2O)CC1 [Compound 50, 2-((3R,6S)-3-(2-(4-aminocyclohexyl)acetamido)-2-hydroxy-1,2-oxaborinan-6-yl)acetic acid]",< 1600 nM,< 1600 nM,< 1600 nM,1.6 to 6.41 µM,> 6.41 µM,> 6.41 µM,> 6.41 µM
"Nc1cc(CC(=O)N[C@H]2CC[C@@H](CC(=O)O)OB2O)ccn1 [Compound 61, 2-((3R,6S)-3-(2-(2-aminopyridin-4-yl)acetamido)-2-hydroxy-1,2-oxaborinan-6-yl)acetic acid]",< 1630 nM,< 1630 nM,< 1630 nM,1.63 to 6.51 µM,1.63 to 6.51 µM,> 6.51 µM,> 6.51 µM
"C[C@]1(Cn2ccnn2)[C@H](C(=O)N[C@H]2CC[C@@H](CC(=O)O)OB2O)N2C(=O)C[C@H]2S1(=O)=O [Compound 59, 2-[(3R,6S)-2-hydroxy-3-[(2S,3 S,5R)-3-methyl-4,4,7-trioxo-3-(1H-1,2,3-triazol-1-ylmethyl)-4λ^6-thia-1-azabicyclo[3.2.0]heptane-2-amido]-1,2-oxaborinan-6-yl]acetic acid]",1100 to 4390 nM,1100 to 4390 nM,< 1100 nM,> 4.39 µM,1.1 to 4.39 µM,> 4.39 µM,> 4.39 µM
"N[C@H](C(=O)N[C@H]1CC[C@@H](CC(=O)O)OB1O)c1ccccc1 [Compound 33, 2-((3R,6S)-3-((S)-2-amino-2-phenylacetamido)-2-hydroxy-1,2-oxaborinan-6-yl)acetic acid]",< 1630 nM,1630 to 6530 nM,1630 to 6530 nM,< 1.63 µM,1.63 to 6.53 µM,> 6.53 µM,> 6.53 µM
"O=C(O)C[C@@H]1CC[C@H](NC(=O)[C@@H]2CCCCN2)B(O)O1 [Compound 45, 2-((3R,6S)-2-hydroxy-3-((S)-piperidine-2-carboxamido)-1,2-oxaborinan-6-yl)acetic acid]",< 1760 nM,1760 to 7040 nM,1760 to 7040 nM,> 7.04 µM,> 7.04 µM,> 7.04 µM,> 7.04 µM
"N=C(N)NCCC[C@@H](N)C(=O)N[C@H]1CC[C@@H](CC(=O)O)OB1O [Compound 47, 2-((3R,6S)-3-((R)-2-amino-5-guanidinopentanamido)-2-hydroxy-1,2-oxaborinan-6-yl)acetic acid]",< 1520 nM,1520 to 6080 nM,1520 to 6080 nM,> 6.08 µM,> 6.08 µM,> 6.08 µM,> 6.08 µM
"O=C(O)C[C@@H]1CC[C@H](NC(=O)Cc2cccnc2)B(O)O1 [Compound 43, 2-((3R,6S)-2-hydroxy-3-(2-(pyridin-3-yl)acetamido)-1,2-oxaborinan-6-yl)acetic acid]",< 1710 nM,< 1710 nM,< 1710 nM,1.71 to 6.85 µM,1.71 to 6.85 µM,> 6.85 µM,> 6.85 µM
"O=C(O)C[C@@H]1CC[C@H](NC(=O)CCc2nnc(-c3ccccc3)o2)B(O)O1 [Compound 60, 2-((3R,6S)-2-hydroxy-3-(3-(5-phenyl-1,3,4-oxadiazol-2-yl)propanamido)-1,2-oxaborinan-6-yl)acetic acid]",< 1340 nM,< 1340 nM,< 1340 nM,1.34 to 5.36 µM,1.34 to 5.36 µM,> 5.36 µM,1.34 to 5.36 µM
"O=C(O)C[C@@H]1CC[C@H](NC(=O)Cc2ccccn2)B(O)O1 [Compound 57, 2-((3R,6S)-2-hydroxy-3-(2-(pyridin-2-yl)acetamido)-1,2-oxaborinan-6-yl)acetic acid]",< 1710 nM,< 1710 nM,< 1710 nM,< 1.71 µM,> 6.85 µM,> 6.85 µM,> 6.85 µM
"O=C(O)C[C@@H]1CC[C@H](NC(=O)[C@H]2Cc3ccccc3CN2)B(O)O1 [Compound 46, 2-((3R,6S)-2-hydroxy-3-((R)-1,2,3,4-tetrahydroisoquinoline-3-carboxamido)-1,2-oxaborinan-6-yl)acetic acid]",< 1510 nM,< 1510 nM,< 1510 nM,> 6.02 µM,> 6.02 µM,> 6.02 µM,> 6.02 µM
"O=C(O)C[C@@H]1CC[C@H](NC(=O)c2cn(C3CC3)c3cc(N4CCNCC4)c(F)cc3c2=O)B(O)O1 [Compound 58, 2-((3R,6S)-3-(1-cyclopropyl-6-fluoro-4-oxo-7-(piperazin-1-yl)-1,4-dihydroquinoline-3-carboxamido)-2-hydroxy-1,2-oxaborinan-6-yl)acetic acid]",< 1030 nM,< 1030 nM,< 1030 nM,1.03 to 4.11 µM,> 4.11 µM,> 4.11 µM,> 4.11 µM
"CCOC(=O)C[C@@H]1CC[C@H](NC(=O)Cc2cccs2)B(O)O1 [Compound 65, ethyl 2-((3R,6S)-2-hydroxy-3-(2-(thiophen-2-yl)acetamido)-1,2-oxaborinan-6-yl)acetate]",> 6150 nM,1540 to 6150 nM,1540 to 6150 nM,1.54 to 6.15 µM,1.54 to 6.15 µM,> 6.15 µM,> 6.15 µM
"N[C@@H](CCC(=O)N[C@H]1CC[C@@H](CC(=O)O)OB1O)C(=O)O [Compound 35, (S)-2-amino-5-((3R,6S)-6-(carboxymethyl)-2-hydroxy-1,2-oxaborinan-3-ylamino)-5-oxopentanoic acid]",< 1660 nM,> 6620 nM,> 6620 nM,> 6.62 µM,> 6.62 µM,> 6.62 µM,> 6.62 µM
"O=C(O)C[C@@H]1CC[C@H](NC(=O)Cc2ccncc2)B(O)O1 [Compound 49, 2-((3R,6S)-2-hydroxy-3-(2-(pyridin-4-yl)acetamido)-1,2-oxaborinan-6-yl)acetic acid]",< 1710 nM,< 1710 nM,< 1710 nM,1.71 to 6.85 µM,1.71 to 6.85 µM,> 6.85 µM,> 6.85 µM
"CSCCC(N)C(=O)N[C@H]1CC[C@@H](CC(=O)O)OB1O (stereo partly drawn) [Compound 41, 2-((3R,6S)-3-(2-amino-4-(methylthio)butanamido)-2-hydroxy-1,2-oxaborinan-6-yl)acetic acid]",< 1640 nM,< 1640 nM,< 1640 nM,> 6.58 µM,> 6.58 µM,> 6.58 µM,> 6.58 µM
"O=C(O)C[C@@H]1CC[C@H](NC(=O)c2ccc(Cn3cnnn3)cc2)B(O)O1 [Compound 56, 2-((3R,6S)-3-(4-((1H-tetrazol-1-yl)methyl)benzamido)-2-hydroxy-1,2-oxaborinan-6-yl)acetic acid]",< 1390 nM,< 1390 nM,< 1390 nM,< 1.39 µM,1.39 to 5.57 µM,> 5.57 µM,1.39 to 5.57 µM
"NCCC(=O)N[C@H]1CC[C@@H](CC(=O)O)OB1O [Compound 34, 2-((3R,6S)-3-(3-aminopropanamido)-2-hydroxy-1,2-oxaborinan-6-yl)acetic acid]",< 2050 nM,2050 to 8190 nM,2050 to 8190 nM,> 8.19 µM,> 8.19 µM,> 8.19 µM,> 8.19 µM
"O=C(O)C[C@@H]1CC[C@H](NC(=O)CCc2ccccc2)B(O)O1 [Compound 38, 2-((3R,6S)-2-hydroxy-3-(3-phenylpropanamido)-1,2-oxaborinan-6-yl)acetic acid]",< 1640 nM,< 1640 nM,< 1640 nM,< 1.64 µM,1.64 to 6.55 µM,> 6.55 µM,1.64 to 6.55 µM
"Cc1nc2ccccc2n1CCC(=O)N[C@H]1CC[C@@H](CC(=O)O)OB1O [Compound 55, 2-((3R,6S)-2-hydroxy-3-(3-(2-methyl-1H-benzo[d]imidazol-1-yl)propanamido)-1,2-oxaborinan-6-yl)acetic acid]",< 1390 nM,< 1390 nM,< 1390 nM,1.39 to 5.57 µM,1.39 to 5.57 µM,> 5.57 µM,> 5.57 µM
